Results: US12697748B2, “Wood treatment compositions having antimicrobial properties” (Société en Commandite Prolam, priority 2022, dated 2026)

Columns and labels:
Assay type in all cases: cell-based
[1] = system: Escherichia coli ATCC 11229; assay: Growth inhibition zone of treated wood pieces on TSA nutrient gel; details: 24 h at 36° C., listed as Negative control
Protocol: (§1) Cubic pieces of Maplewood of about 3 mm of thickness with a surface of about 1 cm^2 were provided. For Sample A, the pieces were heated on a heating plate at 230° C. for about 45 seconds, and dipped into the tannin solution for about 25 seconds, again heated on the heating plate for about 45 seconds and dipped in paraffin at 65° C. for about 25 seconds. For Sample B, the pieces were heated on a heating plate for about 45 seconds, and dipped into the tannin solution for about 25 seconds. The impregnation rate was calculated to be around 645 g/m^2 (60 g/pi^2).
(§2) The growth inhibition for Escherichia coli ATCC 11229 and Staphylococcus aureus ATCC 6538 was first determined. A culture of each microorganism was spread at the surface of Tryptic Soy agar (TSA) nutrient gel. Treated wood was cut into cubic pieces of about 3 mm of thickness with a surface of about 1 cm^2, as prepared above. Each piece was deposited on the nutrient gel, treated face down, contacting the gel, and using two pieces for each microorganism. The petri dishes containing the nutrient gel were closed and incubated for 24 h at 36° C. Sterile filters moistened with demineralized water and with a mercury chloride 0.018 mol/L solution were used and tested as negative and positive controls, respectively. After the incubation period, the growth inhibition zone was measured, and the incubation pursued for three (3) additional days to evaluate the growth under the wooden cubes after the prolonged incubation.
(§3) Cubic pieces of Maplewood of about 1 cm of thickness with a surface of about […] were provided. For Samples 1 and 2, the pieces were heated on a heating plate at 230° C. for about 45 seconds, and dipped into the tannin solution for about 25 seconds, again heated on the heating plate for about 45 seconds and dipped in paraffin at 65° C. for about 25 seconds. For Samples 4 and 5, the pieces were heated on a heating plate for about 45 seconds, and dipped into the tannin solution for about 25 seconds. The impregnation rate was calculated to be around 301 g/m^2 (28 g/pi^2). […]

[2] = system: Staphylococcus aureus ATCC 6538; assay: as above; details: 24 h at 36° C.
Protocol: as §1, §2, §3

[3] = system: Escherichia coli ATCC 11229; assay: Qualitative antibacterial effect, inhibition zone after 48 h (Example 6); details: filter (diameter 10 mm)
Protocol: Cubic pieces of Maplewood of about 1 cm of thickness with a surface of about […] were provided. For Sample Y, the pieces were heated on a heating plate at 230° C. for about 45 seconds, and dipped into the tannin solution for about 25 seconds, again heated on the heating plate for about 45 seconds and dipped in paraffin at 65° C. for about 25 seconds. For Sample X, the pieces were heated on a heating plate for about 45 seconds, and dipped into the tannin solution for about 25 seconds.
After the above impregnation, manual vaporization of the Tanac Weibull™ solution was also conducted. Samples X and Y were sprayed five times each, with 24 h between each spray.
The growth inhibition for Escherichia coli ATCC 11229 was determined. A culture of the microorganism was spread at the surface of Tryptic Soy agar (TSA) nutrient gel. Treated wood cubic pieces of about 3 mm of thickness with a surface of about 1 cm^2, as prepared above. The wooden pieces of Sample X (duplicated) were then rehumidified with water, Sample Y was not rehumidified and two Samples Z (no treated) were used: as is and rehumidified. Each piece was deposited on the nutrient gel, treated face down, contacting the gel. […] After the incubation period, the growth inhibition zone was measured and the incubation pursued at 48 h to evaluate the growth under the wooden cubes after the prolonged incubation.

## [Cl][Hg][Cl] [Positive control, mercury chloride]
[1]
  Diameter of the inhibition zone: 23 mm
[2]
  Diameter of the inhibition zone: 32 mm
[2]; listed as Negative control
  Diameter of the inhibition zone: 25 mm
[3]
  Diameter of the inhibition zone after 48 h: 22 mm
